In publication PMC13429874, “ABHD2 activity is not required for the non-genomic action of progesterone on human sperm” (Human Reproduction (Oxford, England), 2026):
Entries after “also recorded” stand apart in the source; their conditions may differ. Read-outs that look alike come from different tables or passages of the source.

Tests used:
[1] = target: T1, full-length human ABHD2 (ABHD2^FL) (Homo sapiens, UniProt P08910); test: ABHD2^FL enzymatic activity assay with 7-HCA substrate; type: biochemical
T1 construct: TEV site-eGFP-8xHis (C, cleaved yes); made in house; host or cells: SF9 insect cells (baculovirus)
T1 sequence (P08910 1-425): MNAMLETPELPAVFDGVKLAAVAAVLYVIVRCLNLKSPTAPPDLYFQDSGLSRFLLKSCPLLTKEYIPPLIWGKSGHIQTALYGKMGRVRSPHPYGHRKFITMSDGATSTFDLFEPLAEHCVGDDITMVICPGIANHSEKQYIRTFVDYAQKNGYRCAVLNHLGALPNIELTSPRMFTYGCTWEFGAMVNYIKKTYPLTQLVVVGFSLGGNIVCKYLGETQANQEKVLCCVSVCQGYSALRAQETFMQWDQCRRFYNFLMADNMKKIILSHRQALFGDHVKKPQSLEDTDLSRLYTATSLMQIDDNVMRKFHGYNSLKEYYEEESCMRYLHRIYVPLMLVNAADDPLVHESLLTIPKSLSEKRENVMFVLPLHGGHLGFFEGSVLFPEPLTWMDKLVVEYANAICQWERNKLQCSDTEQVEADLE

[2] = target: T2, ABHD2^L33–E425 (Homo sapiens, UniProt P08910); test: ABHD2^L33-E425 fluorometric enzymatic activity assay with 7-HCA substrate; type: biochemical
T2 construct: expression for ABHD2 amino acids L33–E425, in which a predicted transmembrane domain (amino acids 1–32) is removed; His6-FLAG (N); made in house; host or cells: E. coli BL21(DE3)-R3-pRARE2
T2 sequence (P08910 33-425): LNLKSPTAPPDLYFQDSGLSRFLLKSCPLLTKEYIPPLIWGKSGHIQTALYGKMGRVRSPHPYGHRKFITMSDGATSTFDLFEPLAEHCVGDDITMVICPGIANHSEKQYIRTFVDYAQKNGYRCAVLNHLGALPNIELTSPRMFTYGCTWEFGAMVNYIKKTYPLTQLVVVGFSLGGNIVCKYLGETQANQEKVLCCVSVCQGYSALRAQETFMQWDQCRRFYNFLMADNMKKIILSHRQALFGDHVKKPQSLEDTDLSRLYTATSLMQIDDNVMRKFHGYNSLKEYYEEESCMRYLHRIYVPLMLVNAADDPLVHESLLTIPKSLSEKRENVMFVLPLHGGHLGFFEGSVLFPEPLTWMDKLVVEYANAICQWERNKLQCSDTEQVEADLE

[3] = target: T2, ABHD2^L33–E425; test: Differential scanning fluorimetry (DSF) with purified ABHD2^L33–E425; type: binding; conditions: for effect on heat-induced denaturation of ABHD2^L33–E425 (DSF binding): 40 µM steroid, 30 min pre-incubation
[4] = tested on: human sperm; test: Sperm intracellular Ca2+ measurements (Fluo-4); type: cell-based
Description: Measurements of the changes in sperm intracellular Ca^2+ concentration ([Ca^2+]i) were performed on motile human sperm purified by swim-up. Semen samples were allowed to liquefy for 15–60 min at 37°C, and 0.5–1 ml liquified semen was layered beneath 4 ml human tubal fluid medium (HTF; 97.8 mM NaCl, 4.69 mM KCl, 0.2 mM MgSO4, 0.37 mM KH2PO4, 2.04 mM CaCl2, 2.78 mM glucose, 0.33 mM sodium pyruvate, 21.4 mM lactic acid, 4 mM NaHCO3, and 21 mM HEPES pH 7.35 adjusted with NaOH) in 50 ml conical tubes. Motile sperm were allowed to swim up into the HTF for 60–90 min at 37°C, collected, washed twice (700 × g, 20 min, 37°C), and resuspended in HTF containing 3 mg/ml HSA at a density of 1 × 10^7 sperm/ml. Changes of [Ca^2+]i in motile human sperm were measured as previously described ([Rennhack et al., 2018]), using a fluorescence plate-reader assay (FLUOstar Omega, BMG LABTECH) with 384-well plates. Swim-up-purified sperm were loaded with Fluo4-AM (5 μM, Thermo Fisher Scientific, Waltham, MA, USA) and Pluronic F-127 (0.05% w/v) for 20 min at 37°C. Excess dye was removed by centrifugation at 700 × g for 5 min, supernatant removal, and resuspension to 5 × 10^6 sperm/ml in HTF.
For recordings, wells of a 384-well plate were filled with 50 μl of the dye-loaded sperm suspension. Fluorescence was excited at 480 nm, and emission was recorded at 520 nm using a plate reader (Fluostar Omega, BMG Labtech). After establishing a baseline for at least 60 s, 25 µl test compound solutions were added and the fluorescence response recorded. After 4 min, 7.5 µl progesterone was added to reach a final concentration of 3 µM, and ensuing changes in fluorescence were recorded. For the analysis of compound-evoked Ca^2+ signal, basal fluorescence (F0) was determined prior to compound addition. For the determination of inhibitory effects of compounds on progesterone-evoked Ca^2+ signals, basal fluorescence (F0) was determined before progesterone addition. The CatSper inhibitor TS150 ([Schierling et al., 2023]) was used as a control. Each compound was tested in technical duplicates across ≥3 biological replicates, using sperm from at least two donors, and performed on at least two separate days.
Data analysis and graphical representation were performed with GraphPad Prism software version 10.6.1 (San Diego, CA, USA). Changes in Fluo-4 fluorescence are depicted as ΔF/F0 (%), i.e. the change in fluorescence (ΔF) relative to the mean basal fluorescence (F0) before application of buffer or compounds/ligands, to correct for intra- and inter-experimental variations in basal fluorescence among individual wells or to correct for compound-evoked changes in fluorescence. Signal amplitudes evoked in the presence of compounds were normalized to the maximal signal amplitude evoked by 3 µM progesterone in the absence of the compound (set to 1) to ease comparisons between experiments.

[5] = tested on: human sperm; test: Sperm hyperactivation assay (CASA); type: cell-based; conditions: 10 µM compound, 30 min
Description: Sperm hyperactivation was assessed in human sperm purified by density gradient centrifugation. Semen samples (n = 7) were allowed to liquefy for 15–30 min at 37°C, and up to 2 ml of liquified semen was layered onto a two-step GM501 gradient system (45%/90%; Gynemed; Sierksdorf, Germany) pre-equilibrated at 37°C. Gradients were centrifuged for 20 min at 400 × g (no break). The 90% pellet was collected, washed in SpermActive medium (Gynemed; composition per manufacturer: NaCl, KCl, MgSO4.7H2O, KH2PO4, 1.77 mM CaCl2.2H2O, D(+)-glucose anhydrous, sodium pyruvate, sodium lactate, EDTA, alanyl-glutamine, essential and non-essential amino acids, 25.71 mM NaHCO3, 15 mM HEPES, 5 g/l human serum albumin, 10 mg/l gentamicin, and phenol red), and incubated for at least 2 h at 37°C, 5% CO2.
For compound testing, sperm suspensions with 7.5 × 10^6 sperm/ml in SpermActive were treated with either DMSO (vehicle) or 10 µM test compound. For basal and induced hyperactivation conditions, DMSO or progesterone (3 µM), respectively, was added. Samples were incubated for 30 min at 37°C, 5% CO2, before motility analysis.
Motility was analyzed using a CASA system (CEROSII^TM Animal Motility, software version 1.16; Hamilton Thorne, Beverly, MA, USA), mounted on an Axiolab 5 microscope (Zeiss, Germany), equipped with a TPi-SX Thermal Plate (Tokai Hit; Shizuoka-ken, Japan) and a JAI CM-040-GE CCD camera (JAI; Tokyo, Japan). Leja slides (20 µm chamber depth; Leja Products B.V., Nieuw-Vennep, The Netherlands) were pre-warmed to 37°C, cleaned with lens paper, and loaded by capillary action with 6 µl sperm suspension; capillary correction was set to 1.3. Sperm tracks were recorded at 37°C using a 10× negative-phase objective, acquiring 60 frames at 60 Hz with 4 ms exposure and gain set to 600. For each sample and condition, 300–500 motile sperm from at least 10 non-overlapping fields were analyzed. Hyperactive sperm were identified using the SORT function with the following Boolean argument: VCL > 150 µm/s and LIN < 50% and ALH > 7 µm. For each sample and condition, the percentage of hyperactive sperm was normalized to the percentage of motile sperm, and the mean of two technical duplicates was reported.
Statistical analysis was performed using GraphPad Prism 10 for Windows (version 10.6.1). Data normality was assessed using Shapiro–Wilk test. Differences between basal and induced hyperactivation were evaluated using a paired t-test, with effective pairing confirmed across all comparisons. P < 0.05 was considered statistically significant.

[6] = tested on: CatSper; conditions: cited from earlier work
[7] = 5 µM steroid or triterpenoid, 300 nM 7-HCA

Which “effect on enzymatic activity of purified ABHD2^FL” value ([1]; 7-HCA and RB substrates (Suppl. Fig. S4A,B), weak effects at ≥5 µM) does the source give for `CC(C)CCC[C@@H](C)[C@H]1CC[C@H]2[C@@H]3CC=C4C[C@@H](O)CC[C@]4(C)[C@H]3CC[C@]12C` [cholesterol] here?
Its value is “did not alter”.

What about the “effect on enzymatic activity of purified ABHD2^L33–E425” value [2, 7] of the same molecule?
The value was “did not alter”.

And the “effect on heat-induced denaturation of ABHD2^L33–E425 (DSF binding)” value (from here on “effect on heat-induced denaturation”) [3]?
The value was “did not affect”.

With `O=C(N1CCCCC1)N1CCCC[C@@H]1c1ccccc1` [(R)-2] as the molecule, how does the “compound-evoked changes in [Ca2+]i” value ([4]; 10 µM compound) read?
The value was “only minuscule changes”.

And the “effect on progesterone-induced Ca2+ signal (amplitude and waveform)” value ([4]; compounds 10 µM, TS150 60 µM, progesterone 3 µM)?
The value was “similar”.

What about the IC50 ([1]; Supplementary Table S2, read-out: IC50 measured in ABHD2^FL in the 7-HCA Assay) of the same molecule?
The IC50 was 240 nM.

What about the “effect on progesterone-induced hyperactivation” value ([5]; 3 µM progesterone) of the same molecule?
Its value is “not affected”.

What about the “effect on basal hyperactivation” value [5] of the same molecule?
The value was “No statistically significant differences; also recorded: did not affect”.

What about the IC50 ([2]; 10 nM enzyme, 10 µM 7-HCA, read-out: IC50 for ABHD2^L33-425, fluorometric assay using 7-HCA) of the same molecule?
The IC50 was 220 nM.

What about the “ΔTm shift for ABHD2^L33-425 determined by DSF” value ([3]; purified protein) of the same molecule?
The value was 8.4 °C.

For “17α-hydroxyprogesterone [reference compound]”, which “effect on heat-induced denaturation” value [3] is on record?
Its value is “no binding was observed”.

Which Km ([1]; read-out: Km of substrate hydrolysis by ABHD2^FL) does the source give for `CCCCC/C=C\C/C=C\C/C=C\C/C=C\CCCC(=O)Oc1ccc2ccc(=O)oc2c1` [Compound 7-HCA, 7-hydroxycoumarinyl arachidonate] here?
The Km was 59 µM.

What about the “kcat of substrate hydrolysis by ABHD2^L33–E425” value [2] of the same molecule?
Its value is 2.8 pmol substrate/min/pmol enzyme.

What about the Km ([2]; read-out: Km of substrate hydrolysis by ABHD2^L33–E425) of the same molecule?
Its Km is 280 nM.

For `C=C(C)[C@@H]1CC[C@]2(C)CC[C@]3(C)[C@H](CC[C@@H]4[C@@]5(C)CC[C@H](O)C(C)(C)[C@@H]5CC[C@]43C)[C@@H]12` [lupeol], which “progesterone-induced CatSper activation” value ([6]; ref Brenker et al., 2018, Rehfeld, 2020, Rehfeld and Marcus Pedersen, 2022) is on record?
Its value is “do not interfere”.

What about the “progesterone-induced Ca2+ influx and hyperactivation” value ([6]; ref Mannowetz et al., 2017) of the same molecule?
Its value is “inhibitors”.

And the “effect on enzymatic activity of purified ABHD2^L33–E425” value [2, 7]?
Its value is “weak inhibitory action”.

What about the “effect on heat-induced denaturation” value [3] of the same molecule?
The value was “did not affect”.

Which results are given for pregnenolone sulfate?
effect on enzymatic activity of purified ABHD2^FL [1]: weak inhibitory action; effect on enzymatic activity of purified ABHD2^L33–E425 [2]: but not on ABHD2^L33–E425; effect on heat-induced denaturation of ABHD2^L33–E425 (DSF binding) [3]: did not affect

What does the source list for `COC(=O)[C@]1(C)CC[C@]2(C)CC[C@]3(C)C4=CC=C5C(=CC(=O)C(O)=C5C)[C@]4(C)CC[C@@]3(C)[C@@H]2C1` [pristimerin]?
effect on enzymatic activity of purified ABHD2^FL [1]: did not affect; progesterone-induced Ca2+ influx and hyperactivation [6]: inhibitors; progesterone-induced CatSper activation [6]: do not interfere; effect on enzymatic activity of purified ABHD2^L33–E425 [2]: did not affect
